According to patent US10654833B2, “ASK1 isoindolin-1-one inhibitors and methods of use thereof” (Hepatikos Therapeutics, LLC, priority 2018, dated 2020):

Molecular target: recombinant human ASK1 protein (Homo sapiens (Human), UniProt Q99683)
Experiment: ASK1 kinase activity inhibition assay (radiometric 33P incorporation into MBP)
Format: biochemical
Conditions: Table 3; 20 μM MBP, 10 μM 33P-ATP
Protocol: ASK1 Kinase Activity Inhibition Assay
Inhibition of ASK1 kinase activity was determined radiometrically using 33P substrate incorporation (Reaction Biology Corp., Malvern, Pa.). Briefly, recombinant human ASK1 protein, 20 μM substrate (myelin basic protein (MBP)), and compound (diluted from DMSO stock to give 1% final DMSO) were incubated in Base Reaction buffer (20 mM Hepes (pH 7.5), 10 mM MgCl2, 1 mM EGTA, 0.02% Brij35, 0.02 mg/mL BSA, 0.1 mM Na3VO4, 2 mM DTT, 1% DMSO) at room temperature for 20 minutes. The reaction was initiated by addition of 10 μM 33P-ATP (specific activity […]). The reaction was then allowed to proceed for 2 hours at room temperature. Upon reaction termination, the mixture was spotted on P81 exchange paper and kinase activity by incorporation of 33P into MBP substrate was detected by filter-binding method.

recombinant human ASK1 protein, sequence (Q99683 whole entry): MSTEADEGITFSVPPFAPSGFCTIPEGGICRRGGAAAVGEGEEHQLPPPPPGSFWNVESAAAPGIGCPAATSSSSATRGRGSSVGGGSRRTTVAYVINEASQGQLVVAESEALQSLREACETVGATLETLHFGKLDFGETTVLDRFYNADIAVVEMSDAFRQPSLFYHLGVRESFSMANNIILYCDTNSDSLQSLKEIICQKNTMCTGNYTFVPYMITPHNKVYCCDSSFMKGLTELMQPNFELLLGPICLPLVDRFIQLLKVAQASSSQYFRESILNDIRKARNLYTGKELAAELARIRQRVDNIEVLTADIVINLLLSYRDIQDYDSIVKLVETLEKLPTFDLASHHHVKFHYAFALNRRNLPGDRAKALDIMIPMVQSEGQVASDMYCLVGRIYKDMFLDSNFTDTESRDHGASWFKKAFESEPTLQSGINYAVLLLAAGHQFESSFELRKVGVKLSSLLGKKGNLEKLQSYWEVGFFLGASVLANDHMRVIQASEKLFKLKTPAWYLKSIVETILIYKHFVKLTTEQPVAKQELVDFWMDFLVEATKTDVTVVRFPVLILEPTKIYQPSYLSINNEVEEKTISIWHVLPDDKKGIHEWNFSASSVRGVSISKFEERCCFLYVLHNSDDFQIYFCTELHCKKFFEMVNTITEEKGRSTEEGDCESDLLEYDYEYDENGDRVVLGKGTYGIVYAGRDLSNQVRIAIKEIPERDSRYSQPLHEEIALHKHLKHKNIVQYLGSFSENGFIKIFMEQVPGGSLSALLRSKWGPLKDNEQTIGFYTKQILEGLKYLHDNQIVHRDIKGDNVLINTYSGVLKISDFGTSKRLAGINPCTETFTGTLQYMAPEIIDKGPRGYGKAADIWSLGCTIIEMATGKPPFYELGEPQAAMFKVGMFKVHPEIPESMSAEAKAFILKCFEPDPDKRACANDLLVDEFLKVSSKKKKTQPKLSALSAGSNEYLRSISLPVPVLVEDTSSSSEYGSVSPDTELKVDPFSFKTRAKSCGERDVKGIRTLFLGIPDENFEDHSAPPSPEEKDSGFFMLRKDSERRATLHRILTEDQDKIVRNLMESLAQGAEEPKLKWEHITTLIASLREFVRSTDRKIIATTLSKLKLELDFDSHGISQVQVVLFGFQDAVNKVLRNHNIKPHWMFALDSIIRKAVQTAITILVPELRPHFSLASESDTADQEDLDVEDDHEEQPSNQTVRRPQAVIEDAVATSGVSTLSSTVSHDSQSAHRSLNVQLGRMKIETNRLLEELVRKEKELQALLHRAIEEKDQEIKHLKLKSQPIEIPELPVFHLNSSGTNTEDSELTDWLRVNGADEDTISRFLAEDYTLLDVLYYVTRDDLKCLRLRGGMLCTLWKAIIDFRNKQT

Compound | IC50
CC(C)n1cnnc1-c1cccc(N2Cc3ccc(-c4cccc(C(C)(C)C(=O)O)c4)cc3C2=O)n1 [Compound 102, 2-(3-(2-(6-(4-Isopropyl-4H-1,2,4-triazol-3-yl)pyridin-2-yl)-3-oxoisoindolin-5-yl)phenyl)-2-methylpropanoic Acid] | 0.7 nM
CC(C)n1cnnc1-c1cccc(N2Cc3ccc(-c4ccc(C(=O)O)cc4F)cc3C2=O)n1 [Compound 57, 3-Fluoro-4-(2-(6-(4-isopropyl-4H-1,2,4-triazol-3-yl)pyridin-2-yl)-3-oxoisoindolin-5-yl)benzoic Acid] | 5.8 nM
6-(2-(6-(4-Isopropyl-4H-1,2,4-triazol-3-yl)pyridin-2-yl)-3-oxoisoindolin-5-yl)pyridazine-4-carboxylic Acid [Compound 119] | 5.2 nM
O=C1c2cc(-c3cccc(-c4nn[nH]n4)c3)ccc2CN1c1cccc(-c2nncn2C2CC2)n1 [Compound 110, 6-(3-(2H-Tetrazol-5-yl)phenyl)-2-(6-(4-cyclopropyl-4H-1,2,4-triazol-3-yl)pyridin-2-yl)isoindolin-1-one] | 5.44 nM
CC(C)n1cnnc1-c1cccc(N2Cc3ccc(-c4ccc(C(=O)O)cc4O)cc3C2=O)n1 [Compound 69, 3-Hydroxy-4-(2-(6-(4-isopropyl-4H-1,2,4-triazol-3-yl)pyridin-2-yl)-3-oxoisoindolin-5-yl)benzoic Acid] | 6.6 nM
CC(C)n1cnnc1-c1cccc(N2Cc3ccc(-c4ccc(C(=O)O)c(F)c4)cc3C2=O)n1 [Compound 67, 2-Fluoro-4-(2-(6-(4-isopropyl-4H-1,2,4-triazol-3-yl)pyridin-2-yl)-3-oxoisoindolin-5-yl)benzoic Acid] | 5.4 nM
COc1ccc(-c2ccc3c(c2)C(=O)N(c2cccc(-c4nncn4C(C)C)n2)C3)cc1C(=O)O [Compound 96, 5-(2-(6-(4-Isopropyl-4H-1,2,4-triazol-3-yl)pyridin-2-yl)-3-oxoisoindolin-5-yl)-2-methoxybenzoic Acid] | 4.9 nM
CC(C)n1cnnc1-c1cccc(N2Cc3ccc(-c4cccc(-c5nn[nH]n5)c4)cc3C2=O)n1 [Compound 37, 6-(3-(2H-Tetrazol-5-yl)phenyl)-2-(6-(4-isopropyl-4H-1,2,4-triazol-3-yl)pyridin-2-yl)isoindolin-1-one] | 2.8 nM
CC(C)n1cnnc1-c1cccc(N2Cc3ccc(-c4ccc(C(=O)O)c(S(C)(=O)=O)c4)cc3C2=O)n1 [Compound 77, 4-(2-(6-(4-Isopropyl-4H-1,2,4-triazol-3-yl)pyridin-2-yl)-3-oxoisoindolin-5-yl)-2-(methylsulfonyl)benzoic Acid] | 2.8 nM
COC(=O)c1ccc(-c2ccc3c(c2)C(=O)N(c2cccc(-c4nncn4C(C)C)n2)C3)cc1 [Compound 81, Methyl 4-(2-(6-(4-isopropyl-4H-1,2,4-triazol-3-yl)pyridin-2-yl)-3-oxoisoindolin-5-yl)benzoate] | 14.9 nM
COC(=O)c1ccc(F)c(-c2ccc3c(c2)C(=O)N(c2cccc(-c4nncn4C4CC4)n2)C3)c1 [Compound 101, Methyl 3-(2-(6-(4-cyclopropyl-4H-1,2,4-triazol-3-yl)pyridin-2-yl)-3-oxoisoindolin-5-yl)-4-fluorobenzoate] | 3.28 nM
Cc1c(C(=O)O)cc(N)cc1-c1ccc2c(c1)C(=O)N(c1cccc(-c3nncn3C(C)C)n1)C2 [Compound 68, 5-Amino-3-(2-(6-(4-isopropyl-4H-1,2,4-triazol-3-yl)pyridin-2-yl)-3-oxoisoindolin-5-yl)-2-methylbenzoic Acid] | 12.4 nM
CC(C)n1cnnc1-c1cccc(N2Cc3ccc([C@H]4CC[C@H](C(=O)O)CC4)cc3C2=O)n1 [Compound 126, trans-4-(2-(6-(4-Isopropyl-4H-1,2,4-triazol-3-yl)pyridin-2-yl)-3-oxoisoindolin-5-yl)cyclohexane-1-carboxylic acid] | 13.4 nM
Cc1ccc(C(=O)O)cc1-c1ccc2c(c1)C(=O)N(c1cccc(-c3nncn3C(C)C)n1)C2 [Compound 11, 3-(2-(6-(4-Isopropyl-4H-1,2,4-triazol-3-yl)pyridin-2-yl)-3-oxoisoindolin-5-yl)-4-methylbenzoic Acid] | 5.9 nM

The remaining lines, values ahead:

IC50 | Compound
2.6 nM | CC(C)(C(=O)O)c1ccc(-c2ccc3c(c2)C(=O)N(c2cccc(-c4nncn4C4CC4)n2)C3)cc1 [Compound 53, 2-(4-(2-(6-(4-cyclopropyl-4H-1,2,4-triazol-3-yl)pyridin-2-yl)-3-oxoisoindolin-5-yl)phenyl)-2-methylpropanoic acid]
6.8 nM | CCc1sc(C(=O)O)cc1-c1ccc2c(c1)C(=O)N(c1cccc(-c3nncn3C(C)C)n1)C2 [Compound 62, 5-Ethyl-4-(2-(6-(4-isopropyl-4H-1,2,4-triazol-3-yl)pyridin-2-yl)-3-oxoisoindolin-5-yl)thiophene-2-carboxylic Acid]
5.4 nM | CC(C)n1cnnc1-c1cccc(N2Cc3ccc(-c4ccc(C(=O)O)cc4)cc3C2=O)n1 [Compound 55, 4-(2-(6-(4-Isopropyl-4H-1,2,4-triazol-3-yl)pyridin-2-yl)-3-oxoisoindolin-5-yl)benzoic Acid]
42.2 nM | CC(C)n1cnnc1-c1cccc(N2Cc3ccc(-c4ccccc4C(=O)O)cc3C2=O)n1 [Compound 56, 2-(2-(6-(4-Isopropyl-4H-1,2,4-triazol-3-yl)pyridin-2-yl)-3-oxoisoindolin-5-yl)benzoic Acid]
4 nM | CC(C)n1cnnc1-c1cccc(N2Cc3ccc(-c4ccc(CO)c(C(=O)O)c4)cc3C2=O)n1 [Compound 35, 2-(Hydroxymethyl)-5-(2-(6-(4-isopropyl-4H-1,2,4-triazol-3-yl)pyridin-2-yl)-3-oxoisoindolin-5-yl)benzoic Acid]
7 nM | CC(C)n1cnnc1-c1cccc(N2Cc3ccc(-c4ccc(O)c(C(=O)O)c4)cc3C2=O)n1 [Compound 64, 2-Hydroxy-5-(2-(6-(4-isopropyl-4H-1,2,4-triazol-3-yl)pyridin-2-yl)-3-oxoisoindolin-5-yl)benzoic Acid]
0.3 nM | CC(C)n1cnnc1-c1cccc(N2Cc3ccc(-c4cc(C(=O)O)ccc4F)cc3C2=O)n1 [Compound 5, 4-Fluoro-3-(2-(6-(4-isopropyl-4H-1,2,4-triazol-3-yl)pyridin-2-yl)-3-oxoisoindolin-5-yl)benzoic Acid]
3.5 nM | CC(C)n1cnnc1-c1cccc(N2Cc3ccc(-c4ccc5ncc(C(=O)O)n5c4)cc3C2=O)n1 [Compound 123, 6-(2-(6-(4-Isopropyl-4H-1,2,4-triazol-3-yl)pyridin-2-yl)-3-oxoisoindolin-5-yl)imidazo [1,2-a]pyridine-3-carboxylic Acid]
2.1 nM | Cc1c(C(=O)O)ccnc1-c1ccc2c(c1)C(=O)N(c1cccc(-c3nncn3C(C)C)n1)C2 [Compound 114, 2-(2-(6-(4-Isopropyl-4H-1,2,4-triazol-3-yl)pyridin-2-yl)-3-oxoisoindolin-5-yl)-3-methylisonicotinic Acid]
4.1 nM | CC(C)n1cnnc1-c1cccc(N2Cc3ccc(-c4ccc5nc(C(=O)O)sc5c4)cc3C2=O)n1 [Compound 121, 6-(2-(6-(4-Isopropyl-4H-1,2,4-triazol-3-yl)pyridin-2-yl)-3-oxoisoindolin-5-yl)benzo[d]thiazole-2-carboxylic Acid]
1.6 nM | CC(C)n1cnnc1-c1cccc(N2Cc3ccc(-c4nccc(C(=O)O)c4F)cc3C2=O)n1 [Compound 113, 3-Fluoro-2-(2-(6-(4-isopropyl-4H-1,2,4-triazol-3-yl) 103yridine-2-yl)-3-oxoisoindolin-5-yl) Isonicotinic Acid]
4.9 nM | COC(=O)C(C)(C)c1ccc(-c2ccc3c(c2)C(=O)N(c2cccc(-c4nncn4C(C)C)n2)C3)cc1 [Compound 88, Methyl 2-(4-(2-(6-(4-isopropyl-4H-1,2,4-triazol-3-yl)pyridin-2-yl)-3-oxoisoindolin-5-yl)phenyl)-2-methylpropanoate]

Molecular target: human OATP1B1 transporter (Homo sapiens (Human), UniProt Q9Y6L6)
Sequence (Q9Y6L6 whole entry): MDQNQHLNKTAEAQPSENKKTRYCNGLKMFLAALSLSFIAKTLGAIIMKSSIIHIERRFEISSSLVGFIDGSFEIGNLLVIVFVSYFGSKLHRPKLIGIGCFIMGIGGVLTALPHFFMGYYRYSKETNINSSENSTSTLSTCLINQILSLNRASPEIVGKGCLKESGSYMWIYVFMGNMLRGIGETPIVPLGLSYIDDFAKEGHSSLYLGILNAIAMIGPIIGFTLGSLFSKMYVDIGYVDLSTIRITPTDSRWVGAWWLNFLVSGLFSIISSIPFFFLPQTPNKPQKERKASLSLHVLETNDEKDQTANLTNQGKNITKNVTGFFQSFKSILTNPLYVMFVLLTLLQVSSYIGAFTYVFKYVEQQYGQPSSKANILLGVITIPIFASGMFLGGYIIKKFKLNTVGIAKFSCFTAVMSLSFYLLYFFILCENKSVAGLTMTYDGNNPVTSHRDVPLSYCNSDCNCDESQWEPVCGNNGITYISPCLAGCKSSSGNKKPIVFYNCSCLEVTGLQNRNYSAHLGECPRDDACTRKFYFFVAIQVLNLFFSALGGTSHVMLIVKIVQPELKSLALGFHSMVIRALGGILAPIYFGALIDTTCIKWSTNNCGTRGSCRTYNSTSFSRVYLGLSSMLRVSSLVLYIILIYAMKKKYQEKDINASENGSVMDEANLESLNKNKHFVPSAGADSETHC
Experiment: Transporter mediated cellular uptake, OATP1B1-expressing HEK293
Format: in vitro ADME
Conditions: HEK293 stably expressing human OATP1B1, 37° C., 0.5 minutes
Protocol: (§1) Transporter Mediated Cellular Uptake
(§2) To determine transporter mediated cellular uptake of compounds, HEK293 stably expressing either human OATP1B1 or human OATP1B3 transporter, or mock transfected cells were cultured at 37° C. in an atmosphere of 95:5 air:CO2 DMEM/F12 medium containing 10% FBS, 100 unit/mL penicillin-G and 100 μg/mL streptomycin. Transporter expressing cell culture medium also contained 500 μg/mL G418 disulfate solution. Cells were plated onto 24-well poly-D-lysine coated culture plates at the density 5×10^5 cells/well 24 hours prior to uptake assay. Compound stock solutions were made at 1000× final concentration in 100% DMSO. Final compound solutions were prepared by diluting stock solutions into HBSS buffer (pH 7.4) On the day of the uptake assay cell culture media was removed and cells were washed twice with 300 μL of HBSS buffer (pH 7.4). Cellular uptake of compound into the cells was measured by adding 300 μL of final compound solutions in HBSS and incubating them at 37° C. for 0.5 minutes (OATP1B1) or 5 minutes (OATP1B3). Reactions were quenched by removing the buffer containing the TA and the cells were washed twice with 300 μL of HBSS buffer. Cells were lysed by adding 300 μL of MeOH:H2O (2:1) and incubated for 20 minutes at 4° C. The amount of compound in the cell lysate was determined by LC-MS/MS. The amount of protein in each well was quantified using the BCA kit for protein determination and used to normalize compound uptake (Sigma-Aldrich, St Louis, Mo., USA). • Uptake of the probe substrate in control cells provided background activity values for all data points. • Incubation with probe substrate (solvent only) provided 100% activity values. • A reference positive control was used for each transporter

Compound | OATP1B1 Uptake (Percent of no transporter control cell)
CC(C)n1cnnc1-c1cccc(N2Cc3ccc(-c4cccc(C(C)(C)C(=O)O)c4)cc3C2=O)n1 [Compound 102, 2-(3-(2-(6-(4-Isopropyl-4H-1,2,4-triazol-3-yl)pyridin-2-yl)-3-oxoisoindolin-5-yl)phenyl)-2-methylpropanoic Acid] | 221%
C[C@]12CC[C@@H]3c4ccc(OS(=O)(=O)O)cc4CC[C@H]3[C@@H]1CCC2=O [Estrone 3-sulphate, reference compound] | 685%

Molecular target: human OATP1B3 transporter (Homo sapiens (Human), UniProt Q9NPD5)
Sequence (Q9NPD5 whole entry): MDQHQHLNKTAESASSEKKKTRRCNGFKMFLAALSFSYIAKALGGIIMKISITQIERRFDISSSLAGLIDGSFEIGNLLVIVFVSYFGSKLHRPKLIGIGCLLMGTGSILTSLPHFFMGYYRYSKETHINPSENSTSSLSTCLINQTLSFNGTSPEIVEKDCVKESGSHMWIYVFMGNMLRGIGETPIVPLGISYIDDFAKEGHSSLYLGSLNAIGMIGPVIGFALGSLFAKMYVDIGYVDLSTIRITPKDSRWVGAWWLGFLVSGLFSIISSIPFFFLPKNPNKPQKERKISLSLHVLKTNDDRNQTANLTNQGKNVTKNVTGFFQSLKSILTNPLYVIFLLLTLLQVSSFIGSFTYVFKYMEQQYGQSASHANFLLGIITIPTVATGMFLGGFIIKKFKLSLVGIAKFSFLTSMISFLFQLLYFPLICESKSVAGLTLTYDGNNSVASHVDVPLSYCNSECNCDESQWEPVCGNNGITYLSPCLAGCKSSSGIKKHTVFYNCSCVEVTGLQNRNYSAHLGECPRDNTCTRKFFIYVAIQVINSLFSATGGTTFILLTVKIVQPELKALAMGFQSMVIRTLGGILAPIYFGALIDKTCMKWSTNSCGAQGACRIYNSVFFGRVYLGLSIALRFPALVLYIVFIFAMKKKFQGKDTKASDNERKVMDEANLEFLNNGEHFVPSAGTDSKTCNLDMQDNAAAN
Experiment: Transporter mediated cellular uptake, OATP1B3-expressing HEK293
Format: in vitro ADME
Conditions: HEK293 stably expressing human OATP1B3, 37° C., 5 minutes
Protocol: as §1, §2

OATP1B3 Uptake (Percent of no transporter control cell) | Compound
632% | CC(C)n1cnnc1-c1cccc(N2Cc3ccc(-c4cccc(C(C)(C)C(=O)O)c4)cc3C2=O)n1 [Compound 102, 2-(3-(2-(6-(4-Isopropyl-4H-1,2,4-triazol-3-yl)pyridin-2-yl)-3-oxoisoindolin-5-yl)phenyl)-2-methylpropanoic Acid]
490% | C[C@]12CC[C@@H]3c4ccc(O)cc4CC[C@H]3[C@@H]1CC[C@@H]2O [Estradiol, reference compound]
